Legend:
[1] = biological target: T1, human recombinant adrenergic α2C receptor (Homo sapiens, UniProt P18825); assay: Adrenergic α2C radioligand binding ([3H]MK-912); details: compound at 0.1 μM; insect Sf9 cells; read-out: Percentage inhibition of ligand binding, Adrenergic α2C
T1 construct: expressed in transfected cells; host or cells: insect Sf9 cells
T1 sequence (P18825 1-462): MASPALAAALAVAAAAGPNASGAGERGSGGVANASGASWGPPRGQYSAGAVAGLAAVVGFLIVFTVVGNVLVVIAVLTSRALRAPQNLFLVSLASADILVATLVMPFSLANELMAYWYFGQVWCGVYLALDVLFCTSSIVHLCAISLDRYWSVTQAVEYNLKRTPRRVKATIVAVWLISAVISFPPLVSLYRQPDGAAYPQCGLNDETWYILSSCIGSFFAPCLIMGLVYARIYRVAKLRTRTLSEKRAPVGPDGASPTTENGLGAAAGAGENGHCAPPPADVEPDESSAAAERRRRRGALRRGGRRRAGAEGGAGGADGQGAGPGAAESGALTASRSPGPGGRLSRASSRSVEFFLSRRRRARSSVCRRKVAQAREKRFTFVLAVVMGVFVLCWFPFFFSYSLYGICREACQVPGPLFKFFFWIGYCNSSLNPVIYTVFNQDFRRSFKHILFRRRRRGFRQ
Experimental: To evaluate in radioligand binding assays the activity of compounds of the invention, human recombinant adrenergic α2C receptor expressed in insect Sf9 cells (Uhlen, S. et al, J. Pharmacol. Exp. Ther. 271:1558, 1994) in a modified Tris-HCl buffer (50 mM Tris-HCl, pH 7.4, 12.5 mM MgCl2, 2 mM EDTA) was used. Compounds of the invention were incubated with 1 nM [^3H]MK-912 for 60 min at 25° C. Non-specific binding was estimated in the presence of 10 μM WB-4101. Receptor proteins were filtered and washed, the filters were then counted to determine [^3H]MK-912 specifically bound. Compounds were screened at 1 μM or lower, using 1% DMSO as vehicle. Biochemical assay results are presented as the percent inhibition of specific binding in Table 3.

[2] = biological target: T2, human recombinant dopamine D2L receptor (Homo sapiens, UniProt P14416); assay: Dopamine D2L radioligand binding ([3H]Spiperone); details: compound at 1 μM; CHO cells; read-out: Percentage inhibition of ligand binding, Dopamine D2L
T2 construct: expressed in transfected cells; host or cells: CHO
T2 sequence (P14416 whole entry): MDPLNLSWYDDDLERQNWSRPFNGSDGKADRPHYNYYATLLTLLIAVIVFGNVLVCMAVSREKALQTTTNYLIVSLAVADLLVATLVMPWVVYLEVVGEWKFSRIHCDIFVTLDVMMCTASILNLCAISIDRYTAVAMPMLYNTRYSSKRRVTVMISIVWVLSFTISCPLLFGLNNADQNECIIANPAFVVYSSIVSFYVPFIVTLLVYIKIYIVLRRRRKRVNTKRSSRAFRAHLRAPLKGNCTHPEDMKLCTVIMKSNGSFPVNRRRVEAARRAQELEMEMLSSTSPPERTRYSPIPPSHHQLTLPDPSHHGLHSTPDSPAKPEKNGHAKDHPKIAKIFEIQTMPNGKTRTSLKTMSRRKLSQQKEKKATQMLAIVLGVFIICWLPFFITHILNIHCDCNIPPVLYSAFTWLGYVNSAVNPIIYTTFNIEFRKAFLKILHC
Experimental: To evaluate in radioligand binding assays the activity of compounds of the invention, human recombinant dopamine D2L receptor expressed in Chinese hamster ovary (CHO) cells (Grandy, D. et al, Proc. Natl. Acad. Sci. USA. 86:9762, 1989; Hayes, G. et al, Mol. Endocrinol. 6:920, 1992) in a modified Tris-HCl buffer (50 mM Tris-HCl, pH 7.4, 1.4 mM Ascorbic Acid, 0.001% BSA, 150 mM NaCl) was used. Compounds of the invention were incubated with 0.16 nM [^3H]Spiperone for 120 min at 25° C. Non-specific binding was estimated in the presence of 10 μM Haloperidol. Receptor proteins were filtered and washed, the filters were then counted to determine [^3H]Spiperone specifically bound. Compounds were screened at 1 μM or lower, using 1% DMSO as vehicle. Biochemical assay results are presented as the percent inhibition of specific binding in Table 3.

[3] = biological target: T3, human recombinant serotonin (5-Hydroxytryptamine) 5-HT2A receptor (Homo sapiens, UniProt P28223); assay: Serotonin 5-HT2A radioligand binding ([3H]Ketanserin); details: compound at 0.1 μM; CHO K1 cells; read-out: Percentage inhibition of ligand binding, Serotonin 5-HT2A
T3 construct: expressed in transfected cells; host or cells: CHO-K1
T3 sequence (P28223 whole entry): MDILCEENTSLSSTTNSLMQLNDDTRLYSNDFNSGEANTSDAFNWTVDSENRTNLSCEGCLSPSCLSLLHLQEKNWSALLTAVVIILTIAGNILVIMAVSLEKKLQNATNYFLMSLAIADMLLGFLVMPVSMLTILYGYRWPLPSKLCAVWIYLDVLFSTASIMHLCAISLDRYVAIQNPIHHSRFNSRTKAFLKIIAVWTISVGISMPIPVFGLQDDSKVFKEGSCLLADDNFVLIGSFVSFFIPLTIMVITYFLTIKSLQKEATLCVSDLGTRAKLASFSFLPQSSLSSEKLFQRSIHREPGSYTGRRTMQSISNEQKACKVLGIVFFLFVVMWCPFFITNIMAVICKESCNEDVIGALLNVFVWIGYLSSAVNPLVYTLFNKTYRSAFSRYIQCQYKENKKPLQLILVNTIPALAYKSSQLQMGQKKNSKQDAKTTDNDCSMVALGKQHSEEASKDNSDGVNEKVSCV
Experimental: To evaluate in radioligand binding assays the activity of compounds of the invention, human recombinant serotonin (5-Hydroxytryptamine) 5-HT2A receptor expressed in Chinese hamster ovary (CHO) K1 cells (Bonhaus, D. et al, Br. J. Pharmacol. 115:622, 1995; Saucier, C. et al, J. Neurochem. 68:1998, 1997) in a 50 mM Tris-HCl buffer, pH 7.4, was used. Compounds of the invention were incubated with 0.5 nM [^3H]Ketanserin for 60 min at 25° C. Non-specific binding was estimated in the presence of 1 μM Mianserin. Receptor proteins were filtered and washed, the filters were then counted to determine [^3H]Ketanserin specifically bound. Compounds were screened at 1 μM or lower, using 1% DMSO as vehicle. Biochemical assay results are presented as the percent inhibition of specific binding in Table 4.

[4] = biological target: T4, human recombinant serotonin (5-Hydroxytryptamine) 5-HT5A receptor (Homo sapiens, UniProt P47898); assay: Serotonin 5-HT5A radioligand binding ([3H]LSD); details: compound at 0.1 μM; CHO K1 cells; read-out: Percentage inhibition of ligand binding, Serotonin 5-HT5A
T4 construct: expressed in transfected cells; host or cells: CHO-K1
T4 sequence (P47898 whole entry): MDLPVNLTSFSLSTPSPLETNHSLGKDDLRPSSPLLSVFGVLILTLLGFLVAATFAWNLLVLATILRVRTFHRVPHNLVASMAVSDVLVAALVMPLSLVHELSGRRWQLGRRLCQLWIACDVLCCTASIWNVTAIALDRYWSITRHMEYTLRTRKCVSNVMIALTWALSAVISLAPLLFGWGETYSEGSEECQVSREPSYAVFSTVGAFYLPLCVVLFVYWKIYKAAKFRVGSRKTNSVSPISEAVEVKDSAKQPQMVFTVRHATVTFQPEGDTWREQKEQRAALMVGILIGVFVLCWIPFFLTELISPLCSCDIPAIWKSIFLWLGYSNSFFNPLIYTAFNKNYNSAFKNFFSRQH
Experimental: To evaluate in radioligand binding assays the activity of compounds of the invention, human recombinant serotonin (5-Hydroxytryptamine) 5-HT5A receptor expressed in Chinese hamster ovary (CHO) K1 cells (Rees, S. et al, FEBS Lett. 355:242, 1994) in a modified Tris-HCl buffer (50 mM Tris-HCl, pH 7.4, 10 mM MgCl2, 0.5 mM EDTA) was used. Compounds of the invention were incubated with 1.7 nM [^3H]Lysergic acid diethylamide (LSD) for 60 min at 37° C. Non-specific binding was estimated in the presence of 100 μM Serotonin (5-HT). Receptor proteins were filtered and washed, the filters were counted to determine [^3H]LSD specifically bound. Compounds were screened at 1 μM or lower, using 1% DMSO as vehicle. Biochemical assay results are presented as the percent inhibition of specific binding in Table 4.

[5] = biological target: T5, human recombinant serotonin (5-Hydroxytryptamine) 5-HT7 receptor (Homo sapiens, UniProt P34969); assay: Serotonin 5-HT7 radioligand binding ([3H]LSD); details: compound at 0.1 μM; CHO cells; read-out: Percentage inhibition of ligand binding, Serotonin 5-HT7
T5 construct: expressed in transfected cells; host or cells: CHO
T5 sequence (P34969 whole entry): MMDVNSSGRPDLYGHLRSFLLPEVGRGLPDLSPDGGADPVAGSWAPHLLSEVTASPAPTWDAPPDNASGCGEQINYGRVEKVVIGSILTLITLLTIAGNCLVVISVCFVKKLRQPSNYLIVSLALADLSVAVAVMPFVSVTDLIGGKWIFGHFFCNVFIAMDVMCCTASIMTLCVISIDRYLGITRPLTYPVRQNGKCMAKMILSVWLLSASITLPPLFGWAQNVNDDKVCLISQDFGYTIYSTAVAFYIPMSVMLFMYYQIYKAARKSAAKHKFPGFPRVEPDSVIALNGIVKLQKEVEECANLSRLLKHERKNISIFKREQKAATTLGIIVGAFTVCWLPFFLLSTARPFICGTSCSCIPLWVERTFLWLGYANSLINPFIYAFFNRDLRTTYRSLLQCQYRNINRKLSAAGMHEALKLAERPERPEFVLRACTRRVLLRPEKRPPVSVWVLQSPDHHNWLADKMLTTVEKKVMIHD
Experimental: To evaluate in radioligand binding assays the activity of compounds of the invention, human recombinant serotonin (5-Hydroxytryptamine) 5-HT7 receptor expressed in Chinese hamster ovary (CHO) cells (Roth, B. et al, J. Pharmacol. Exp. Ther. 268:1403, 1994; Shen, Y. et al, J. Biol. Chem. 268:18200, 1993) in a modified Tris-HCl buffer (50 mM Tris-HCl, pH 7.4, 10 mM MgCl2, 0.5 mM EDTA) was used. Compounds of invention were incubated with 5.5 nM [^3H] Lysergic acid diethylamide (LSD) for 2 h at 25° C. Non-specific binding was estimated in the presence of 10 μM Serotonin (5-HT). Receptor proteins were filtered and washed, the filters were then counted to determine [^3H]LSD specifically bound. Compounds were screened at 1 μM or lower, using 1% DMSO as vehicle. Biochemical assay results are presented as the percent inhibition of specific binding in Table 4.

| SMILES | inhibition at 0.1 µM [1] [%] | inhibition at 1 µM [2] [%] | inhibition at 0.1 µM [3] [%] | inhibition at 0.1 µM [4] [%] | inhibition at 0.1 µM [5] [%] |
| --- | --- | --- | --- | --- | --- |
| Cc1ccc2c(c1)c1c3n2C(c2ccccc2)=CCC3(C)CN(C)C1 (stereo not drawn) [Compound 10, 2,3a,10-trimethyl-6-phenyl-2,3,3a,4-tetrahydro-1H-indolo[3,2,1-ij][1,6]naphthyridine] | 2 | 9 | 13 | -8 | 12 |
| Cc1ccc2c(c1)c1c3n2CC(c2ccncc2)=CCC3(C)CN(C)C1 (stereo not drawn) [Compound 11, 2,3a,10-trimethyl-6-pyridin-4-yl-1,2,3,3a,4,7-hexahydro-2,7a-diaza-cyclohepta[jk]fluorene] | 1 | 3 | 10 | 9 | -8 |
| Cc1ccc2c(c1)c1c3n2C(c2ccccc2)CCC3(C)CN(C)C1 (stereo not drawn) [Compound 12, 2,3a,10-trimethyl-6-phenyl-2,3,3a,4,5,6-hexahydro-1H-indolo[3,2,1-ij][1,6]naphthyridine] | -3 | 5 | 12 | -21 | -17 |

From patent US9040519B2, “Fused tetracyclic pyrido [4,3-B] indole and pyrido [3,4-B] indole derivatives and methods of use” (Medivation Technologies, Inc., priority 2010, dated 2015)
